Laboratory results from the supplement of paper PMC5908809.

What was measured:
[1] = test system: normal NK cells expanded with K562-aAPC; experiment: drug sensitivity score (DSS) (DSS units); higher = more sensitive; extreme values may be limits of the assay; settings: 72 h; IL-2 2.5 ng/mL
Protocol: (§1)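 Drug sensitivity and resistance testing on K562-aAPC-expanded normal NK cells: 5 concentrations (10-fold steps over a 10,000-fold range), 72 h at 37 °C, viability by CellTiter-Glo normalised to DMSO and benzethonium chloride controls; DSS from the fitted curve.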

[2] = test system: NK-YS (IL-2 2.5 ng/mL); experiment: as above; settings: 72 h
[3] = test system: KHYG-1 (IL-2 2.5 ng/mL); experiment: as above; settings: 72 h
[4] = test system: normal primary NK cells, pool 1 (3 donors), resting (IL-2 0 ng/mL); experiment: as above; settings: 72 h
[5] = test system: normal primary NK cells, pool 1 (3 donors) (IL-2 2.5 ng/mL); experiment: as above; settings: 72 h
[6] = test system: YT (IL-2 2.5 ng/mL); experiment: as above; settings: 72 h
[7] = test system: DERL-7 (IL-2 2.5 ng/mL); experiment: as above; settings: 72 h
[8] = test system: KAI3 (IL-2 2.5 ng/mL); experiment: as above; settings: 72 h
[9] = test system: NKL (IL-2 2.5 ng/mL); experiment: as above; settings: 72 h
[10] = test system: SNK-6 (IL-2 2.5 ng/mL); experiment: as above; settings: 72 h
[11] = test system: IMC-1 (IL-2 20 ng/mL); experiment: as above; settings: 72 h
[12] = test system: normal primary NK cells, pool 3 (3 donors) (IL-2 2.5 ng/mL); experiment: as above; settings: 72 h
[13] = test system: NK-92 (IL-2 2.5 ng/mL); experiment: as above; settings: 72 h
[14] = test system: normal primary NK cells, pool 2 (3 donors) (IL-2 2.5 ng/mL); experiment: as above; settings: 72 h
[15] = test system: NK-YS (IL-2 2.5 ng/mL); experiment: percent inhibition of viability; higher = more inhibition; settings: 72 h
[16] = test system: KHYG-1 (IL-2 2.5 ng/mL); experiment: as above; settings: 72 h
[17] = test system: normal primary NK cells, pool 1 (3 donors), resting (IL-2 0 ng/mL); experiment: as above; settings: 72 h
[18] = test system: normal primary NK cells, pool 1 (3 donors) (IL-2 2.5 ng/mL); experiment: as above; settings: 72 h
[19] = test system: YT (IL-2 2.5 ng/mL); experiment: as above; settings: 72 h
[20] = test system: DERL-7 (IL-2 2.5 ng/mL); experiment: as above; settings: 72 h
[21] = test system: KAI3 (IL-2 2.5 ng/mL); experiment: as above; settings: 72 h
[22] = test system: NKL (IL-2 2.5 ng/mL); experiment: as above; settings: 72 h
[23] = test system: SNK-6 (IL-2 2.5 ng/mL); experiment: as above; settings: 72 h
[24] = test system: IMC-1 (IL-2 20 ng/mL); experiment: as above; settings: 72 h
[25] = test system: normal primary NK cells, pool 3 (3 donors) (IL-2 2.5 ng/mL); experiment: as above; settings: 72 h
[26] = test system: NK-92 (IL-2 2.5 ng/mL); experiment: as above; settings: 72 h
[27] = test system: normal primary NK cells, pool 2 (3 donors) (IL-2 2.5 ng/mL); experiment: as above; settings: 72 h
[28] = test system: normal NK cells expanded with K562-aAPC; experiment: as above; settings: 72 h, IL-2 2.5 ng/mL
Protocol: as §1

Oc1ncnc2[nH]ncc12 [Allopurinol] (max concentration tested 10000 nM)
Settings	drug sensitivity score
[1]	0.01
[2]	1.14
[3]	0
[4]	0
[5]	0
[6]	0.33
[7]	0
[8]	0
[9]	4.59
[10]	0
[11]	0.55
[12]	0
[13]	3.57
[14]	0

percent inhibition of viability [%]
Settings	1 nM	10 nM	100 nM	1000 nM	10000 nM
[15]	2.79	-1.6	-0.2	4.55	19.6
[16]	-9.33	-11.3	-5.44	-3.66	4.19
[17]	22.9	25.1	18.7	23.7	20.5
[18]	-1.72	15.7	6.17	6.91	4.11
[19]	-7.85	-8.54	-5.69	-2.75	18
[20]	2.01	4.75	3.34	1.14	-11.8
[21]	17.2	10.9	9.45	11.5	25.8
[22]	1.32	3.75	2.9	25.9	26
[23]	11.9	-22.5	-2.24	-13.2	5.06
[24]	0.44	0.22	0.39	1.15	17.8
[25]	-2.7	8.19	6.53	0	8.15
[26]	6.41	11.2	3.55	20.5	30.9
[27]	4.21	8.86	8.54	1.11	5.24
[28]	-3.35	-7.15	-3.73	3.65	10.3

Cc1nc(NC(=O)N2CCC[C@H]2C(N)=O)sc1-c1ccnc(C(C)(C)C(F)(F)F)c1 [Alpelisib] (max concentration tested 2500 nM)
Settings	drug sensitivity score
[1]	1.85
[2]	0.18
[3]	0
[4]	0.03
[5]	0
[6]	0.26
[7]	0.82
[8]	2.35
[9]	0.2
[10]	3.22
[11]	0
[12]	0
[13]	0.74
[14]	0.14

percent inhibition of viability [%]
Settings	0.25 nM	2.5 nM	25 nM	250 nM	2500 nM
[15]	-0.06	-1.74	4.37	2.5	12.7
[16]	-0.82	0.62	4.26	2.48	8.78
[17]	-10.5	5.01	-8.93	6.1	10.3
[18]	-6.99	-1.42	-4.27	3.43	6.48
[19]	-0.82	0.14	1.96	2.35	13
[20]	-4.58	-9.56	-0.97	-2.79	25.6
[21]	6.58	6.32	4.01	8.23	30.4
[22]	-4.18	0.03	10.1	5.23	12.8
[23]	-6.11	8.58	10.5	15.4	29
[24]	3.85	3.43	5.77	4.62	5.3
[25]	-7.64	-5.69	-6.05	0.32	2.93
[26]	-1.19	0.59	11.2	7.16	16.2
[27]	-4.3	-1.23	0.06	3.89	11.4
[28]	0.72	1.85	-0.5	3.19	30.6

O=C1CN2Cc3c(ccc(Cl)c3Cl)N=C2N1 [Anagrelide] (max concentration tested 10000 nM)
Settings	drug sensitivity score
[1]	0
[2]	0
[3]	0
[4]	0.58
[5]	0
[6]	0.03
[7]	0
[8]	2.01
[9]	0
[10]	1.18
[11]	0
[12]	0
[13]	1.23
[14]	0

percent inhibition of viability [%]
Settings	1 nM	10 nM	100 nM	1000 nM	10000 nM
[15]	-1.23	-6.42	0.98	-1.47	9.94
[16]	-5.21	-5.67	-5.27	2.55	2.12
[17]	-14.4	8.37	10.8	4.74	9.32
[18]	-7.17	12.1	9.62	3.68	6.66
[19]	-4.72	-11.3	-2.78	-6.4	13
[20]	0.58	-15.8	5.22	-2.15	-3.54
[21]	-3.01	-16.8	2.67	7.81	26.7
[22]	-8	-3.63	5.32	5.47	9.73
[23]	-14.4	-27.6	-25	10.6	16.6
[24]	-2	-2.1	0.73	-7.98	0.69
[25]	-7.45	-4.06	-2.15	-4.72	-5.66
[26]	-16.3	-4.98	5.49	11	18.2
[27]	-5.09	5.68	10.3	2.48	5.2
[28]	-10.7	-8.47	-7.13	1.09	4.94

Nc1ncn([C@@H]2O[C@H](CO)[C@@H](O)[C@H]2O)c(=O)n1 [Azacitidine] (max concentration tested 10000 nM)
Settings	drug sensitivity score
[1]	4
[2]	6.22
[3]	8.51
[4]	1.88
[5]	2.65
[6]	1.12
[7]	8.4
[8]	6.42
[9]	2.92
[10]	10.7
[11]	4.03
[12]	0.77
[13]	8.11
[14]	1.04

percent inhibition of viability [%]
Settings	1 nM	10 nM	100 nM	1000 nM	10000 nM
[15]	-2.67	-1.33	3.5	15.9	67.6
[16]	-4.59	-3.23	2.46	23.2	89.6
[17]	-3.24	-12.3	5.31	4.81	27.4
[18]	-2.2	-10.3	1.35	9.04	30.6
[19]	-1.86	-3.15	-1.98	-0.51	28
[20]	2.03	3.15	2.51	24.5	85.6
[21]	-2.09	-1.87	2.62	26.2	60.5
[22]	-16.7	-17.1	-14.1	-11.2	65.5
[23]	-3.1	1	15.7	47.1	67.8
[24]	-6.44	-3.39	2.53	-7.92	82.7
[25]	-6.45	-3.68	-2.24	-3.82	25.5
[26]	-4.17	-12.4	-0.66	23.1	83.7
[27]	-6.68	-8.85	-5.14	-3.32	29.2
[28]	-4.42	-10.9	-6.84	4.72	60.3

CC[C@@H]1C(=O)N(C)c2cnc(Nc3ccc(C(=O)NC4CCN(C)CC4)cc3OC)nc2N1C1CCCC1 [BI 2536] (max concentration tested 1000 nM)
Settings	drug sensitivity score
[1]	13.5
[2]	15.2
[3]	19.9
[4]	0.98
[5]	1.36
[6]	15
[7]	24.6
[8]	14.1
[9]	16.6
[10]	17.8
[11]	21.4
[12]	1.86
[13]	23.4
[14]	4.32

percent inhibition of viability [%]
Settings	0.1 nM	1 nM	10 nM	100 nM	1000 nM
[15]	1.37	3.08	22.7	66.2	58.4
[16]	-0.33	-0.33	11.5	101	102
[17]	4.96	13.2	-4.79	-10.2	31.4
[18]	-8.51	7.02	-5.03	-6.42	36.1
[19]	-0.96	-1.95	5.23	77.8	74.1
[20]	-1.78	1.66	56.8	99.1	96.4
[21]	-2.84	1.84	32	55.7	52.9
[22]	-16.1	-17.7	34.5	66.8	64.5
[23]	3.37	2.93	50.7	61.7	48.1
[24]	-3.03	-6.74	26.6	96.7	95.2
[25]	-15.6	-13.3	-7.87	-2.57	41.2
[26]	-10.3	-5.85	41.7	99.6	91.2
[27]	-11.8	-7.85	-1.58	7	58.2
[28]	1.03	0.31	20.1	60.1	67.4
